PMC12751012, “Nanoscale Direct-to-Biology Optimization and Structural Insights into Selective S. aureus TrmD Inhibitors” (Journal of Medicinal Chemistry, 2025)
“Also recorded” adds a separate entry of the source. Like-named read-outs stand apart in the source and are kept apart here.

Experiments:
E. coli ATCC10536 = assay: Bacterial growth inhibition assay, E. coli ATCC10536; assay type: cell-based, Escherichia coli; details: for effect on E. coli growth: up to 100 μM, growth curves
Description: (§1) Compounds were dissolved in DMSO to a final concentration of 20 mM. To determine the compound’s activity against different bacteria, a bacterial culture (E. coli ATCC10536, S. aureus RN4220) was set up to an optical density at 600 nm (OD600) of 0.05 from an overnight culture in Mueller-Hinton broth (Carl Roth). The compound was added in different concentrations ranging from […] to 1 μM. DMSO concentration was constantly adjusted to be 1% in the final culture. Cultures of 200 μL were incubated for 24 h at 37 °C in flat-bottom 96-well polystyrene culture plates (Greiner) using a BioTek Synergy H1 plate reader. Plates were incubated under constant shaking, and absorbance at 600 nm was measured every 20 min. The experiment was performed in three biological replicates with three technical replicates each.

S. aureus TrmD = target: T1, S. aureus TrmD (Staphylococcus aureus, UniProt Q2FZ43); assay: Fluorescence polarization (FP) assay, tracer 4, S. aureus TrmD; assay type: binding
T1 construct: made in house; host or cells: E. coli BL21
T1 sequence (Q2FZ43 1-245): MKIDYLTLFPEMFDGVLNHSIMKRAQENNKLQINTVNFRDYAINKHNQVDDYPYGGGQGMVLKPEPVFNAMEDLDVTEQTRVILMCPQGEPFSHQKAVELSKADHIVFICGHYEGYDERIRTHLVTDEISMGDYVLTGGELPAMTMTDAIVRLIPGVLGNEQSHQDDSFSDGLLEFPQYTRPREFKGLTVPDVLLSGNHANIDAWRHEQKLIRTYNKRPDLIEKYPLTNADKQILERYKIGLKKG
Description: To enable the screening of hundreds of nanomole-scale synthesized compounds, the implementation of a high-throughput-capable RNA methyltransferase (MTase) assay is considered fundamental. […] In this assay format, a fluorescent, SAM-pocket binding tracer can be displaced by the compound under investigation, and the resulting change in fluorescence polarization defines the read-out of the inhibitor compound’s affinity (Figure A).
Fluorescence polarization (FP) assays were performed as follows. The assays for H. influenzae TrmD have been described previously. All assays were conducted in technical triplicate using black 96-well half area plates. For the FP assays, a tracer (20 nM Cy5TPD for E. coli and H. influenzae TrmD, 10 nM tracer 4 for S. aureus TrmD) was mixed with the respective enzyme (2 μM E. coli TrmD, 2 μM H. influenzae TrmD, 500 nM S. aureus TrmD) in buffer (E. coli and H. influenzae TrmD: 50 mM HEPES, 500 mM NaCl, 5% Glycerol, pH 7.5, S. aureus TrmD: 40 mM Tris HCl, 100 mM NaCl, 10 mM MgCl2, 5% Glycerol, pH 7.5). The compounds were added in varying concentrations for K D-value determination. […] The Z-factor for tracer 4 was determined by measuring 48 replicates of the free tracer (positive controls, PC) and 48 replicates of a mixture of enzyme and tracer (negative controls, NC). The Z-factor is defined in terms of the means (μ) and standard deviations (σ) of the positive and negative controls and calculated as Z = 1–(3*(σnc + σpc)/(μnc–μpc)). […] Polarization values (mP) were determined from polarization-specific parallel and orthogonal fluorescence intensities. K D-values were calculated in GraphPad Prism 8.0.1 using the four-parameter Hill equation: y(% tracer bound) = bottom + ([ligand]-slope) × (top–bottom)/([ligand]-slope + K Dslope).

human Trm5 = target: T2, human Trm5 (Homo sapiens, UniProt Q32P41); assay: 3H-based MTase enzyme inhibition assay, Trm5; assay type: biochemical; details: 3H-based enzyme assay, screened at 30 μM
T2 construct: a truncated construct of Trm5 (aa 66–475), with flexible termini omitted; made in house; host or cells: E. coli Rosetta2 (DE3)
T2 sequence (Q32P41 66-475): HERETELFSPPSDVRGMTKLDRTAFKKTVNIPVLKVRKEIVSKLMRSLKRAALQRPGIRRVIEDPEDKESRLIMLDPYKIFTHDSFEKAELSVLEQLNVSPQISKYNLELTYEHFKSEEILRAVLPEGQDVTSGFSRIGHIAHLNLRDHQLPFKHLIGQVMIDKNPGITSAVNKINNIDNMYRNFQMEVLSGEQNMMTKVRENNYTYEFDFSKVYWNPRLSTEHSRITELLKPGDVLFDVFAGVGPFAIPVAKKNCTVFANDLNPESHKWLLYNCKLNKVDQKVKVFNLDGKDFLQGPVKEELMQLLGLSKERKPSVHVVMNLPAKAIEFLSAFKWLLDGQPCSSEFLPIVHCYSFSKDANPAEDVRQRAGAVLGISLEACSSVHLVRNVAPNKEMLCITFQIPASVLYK
Description: ^3H-based inhibition assays for TrmD S. aureus were performed in 50 mM HEPES, 5 mM MgCl2, 80 mM NaCl, 0.005% Tween-20, 1 mM DTT, pH 7.5 buffer; and for Trm5 in 100 mM Tris-HCl, 0.1 mM EDTA, 6 mM MgCl2, 100 mM KCl, 2 mM DTT, pH 7.4. The reaction mixture contained for S. aureus TrmD: 1 μM synthetic tRNA^Leu (Genscript, see above) and 100 nM S. aureus TrmD; For human Trm5:10 μM synthetic tRNA^Leu and 1.5 μM Trm5. Compounds were screened for S. aureus TrmD at 1 μM and for Trm5 at 30 μM. The enzymatic reactions were started by the addition of SAM as a mixture of ^3H-SAM (Hartmann Analytics, S. aureus TrmD: 0.5 μM, Trm5: 2 μM) and cold SAM (New England Biolabs, S. aureus TrmD: 0.5 μM, Trm5: 98 μM) to a final activity of 0.04 μCi μL^–1 (TrmD) or 0.16 μCi μL^–1 (Trm5). The reaction mixtures were incubated in duplicate for 60 min (TrmD)/30 min (Trm5) at 37 °C. As a negative control, the reaction mixture without the enzyme was used, and as a positive control, the reaction mixture without the test compound was used. After the enzyme incubation time, aliquots of 8 μL were taken from the reaction mixture and spotted on Whatman glass microfiber filters (GF/C, 25 mm). The tRNA was precipitated on the filters with 5% ice-cold TCA for 15 min. The filters were washed twice with 5% TCA at room temperature for 20 and 10 min, and once in EtOH for 10 min. After drying, the filters were transferred into scintillation vials with 3 mL of PerkinElmer Gold MV liquid scintillation cocktail. Scintillation was measured with a scintillation counter (TriCarb Liquid Scintillation Analyzer 4810TR; measurement time of 1 min).

S. aureus RN4220 = assay: Bacterial growth inhibition assay, S. aureus RN4220; assay type: cell-based, Staphylococcus aureus; details: for effect on S. aureus RN4220 growth: 1, 10 and 100 μM, 24 h growth curves; for MIC: Staphylococcus aureus, read-out: MIC S. aureus
Description: as §1

[1] = apparent affinity, purified compound, 500 nM TrmD, 10 nM tracer 4, read-out: KD S. aureus TrmD (FP displacement assay)

Structure (SMILES) | effect on E. coli growth (E. coli ATCC10536) | Kd (S. aureus TrmD; [1]) [µM] | IC50 (human Trm5) [µM] | effect on S. aureus RN4220 growth (S. aureus RN4220) | MIC (S. aureus RN4220; RN4220, 24 h) [µM] | MIC (S. aureus RN4220; RN4220, 24 h (1440 min)) [µM] | Kd (S. aureus TrmD; chromatographically purified compound, read-out: KD S. aureus TrmD (FP displacement assay)) [µM] | E. coli growth rate (E. coli ATCC10536; highest concentration (100 μM)) | S. aureus TrmD binding (FP) (S. aureus TrmD; up to 100 μM) | Kd (S. aureus TrmD; KD S. aureus TrmD (FP displacement assay), apparent affinity, purified compound, 500 nM TrmD, 10 nM tracer 4) [µM]
N#Cc1cccc(Cn2cc(-c3c[nH]c4nc[nH]c(=O)c34)nn2)c1 [Compound 8b, 3-((4-(4-Oxo-4,7-dihydro-3H-pyrrolo[2,3-d]pyrimidin-5-yl)-1H-1,2,3-triazol-1-yl)methyl)benzonitrile] | no pronounced effect on growth | 1.82 ± 0.13 | > 30 | no pronounced effect on growth | > 100 |  |  |  |  | 
O=c1[nH]cnc2[nH]cc(-c3cn(CC4CCC5C(CC4)C5(F)F)nn3)c12 (stereo not shown) [Compound 8c, 5-(1-((8,8-Difluorobicyclo[5.1.0]octan-4-yl)methyl)-1H-1,2,3-triazol-4-yl)-3,7-dihydro-4H-pyrrolo[2,3-d]pyrimidin-4-one] | no pronounced effect on growth | 1.05 ± 0.11 | > 30 | no pronounced effect on growth |  | > 100 |  |  |  | 
O=c1[nH]cnc2[nH]cc(-c3cn(Cc4ccc5ncccc5c4)nn3)c12 [Compound 8d, 5-(1-(Quinolin-6-ylmethyl)-1H-1,2,3-triazol-4-yl)-3,7-dihydro-4H-pyrrolo[2,3-d]pyrimidin-4-one] | no pronounced effect on growth | 0.72 ± 0.07 | > 30 | no pronounced effect on growth |  | > 100 | 0.725 ± 0.075 |  |  | 
N[C@@H]1CCC[C@@H]1Cn1cc(-c2c[nH]c3nc[nH]c(=O)c23)nn1 [Compound 8e, 5-(1-(((1R,2R)-2-Aminocyclopentyl)methyl)-1H-1,2,3-triazol-4-yl)-3,7-dihydro-4H-pyrrolo[2,3-d]pyrimidin-4-one] | no pronounced effect on growth | 1.62 ± 0.24 | > 30 | no pronounced effect on growth |  | > 100 |  |  |  | 
O=C(/N=C(\NCCn1cc(-c2c[nH]c3nc[nH]c(=O)c23)nn1)NC(=O)OCc1ccccc1)OCc1ccccc1 [Compound 8f] | no significant growth inhibition | > 100 | > 30 | significant reduction in S. aureus growth; also recorded: significant effect on S. aureus bacteria in lower concentrations |  | 12.5 |  | slight increase | no S. aureus TrmD binding | 
CC(C)(C)OC(=O)/N=C(\NCCn1cc(-c2c[nH]c3nc[nH]c(=O)c23)nn1)NC(=O)OC(C)(C)C [Compound 8g] | no significant growth inhibition | 19.8 | > 30 |  |  | > 100 |  |  |  | 
NC(N)=NCCn1cc(-c2c[nH]c3nc[nH]c(=O)c23)nn1 [Compound 8h] |  |  | > 30 |  |  |  |  |  |  | 2.48 ± 0.21
